From patent publication US8748408B2, “Methods of treatment of mitochondrial disorders” (The Regents of the University of California, priority 1999, dated 2014)

Assays:
Format in all cases: in vivo, human
[1] = Tegretol level in patient (Example 4); details: both before and after starting triacetyluridine, found subtherapeutic
[2] = system: child with MARIAHS syndrome
Text: CMZ is a child with mitochondrial ataxia, recurrent infections, aphasia, hypouricemia/hypomyelination, and seizures ([…] syndrome), cared for […]. Symptoms indicate a primary deficiency in the enzyme dihydroorotate dehydrogenase, the rate-limiting step in de novo pyrimidine synthesis, which could lead to a functional dependence on exogenous uridine. […] treatment began with uridine. […] the treating agent was switched to triacetyluridine because it is a more easily absorbed form of uridine.

[3] = system: patients with mitochondrial renal tubular acidosis (RTA); assay: Treatment of patients with mitochondrial renal tubular acidosis with triacetyluridine (Example 1)
Text: Four patients with mitochondrial renal tubular acidosis (RTA) were studied. Mitochondrial RTAs often defy simple classification as proximal (type II) or distal (type I) tubulopathies, as these patients are often mosaics and express features of both phenotypes leading to hyperchloremic (non-anion gap) metabolic acidosis.
Patient #1 was a person with Leigh syndrome, lactic acidemia, and complex I deficiency who required 200 mEq/day of NaHCO3 to compensate for renal losses of alkali, and maintain serum bicarbonate levels above 20 mEq/l, 1+ proteinuria, and significant aminoaciduria with hydroxyprolinuria.
Patient #2 was a person with Leigh syndrome, and complex IV (COX) deficiency, who also required 200 mEq/day of NaHCO3.
Patient #3 was a person with Leigh syndrome, lactic acidemia, 1+ proteinuria, and pyruvate dehydrogenase (PDH) deficiency, who required up to 210 mEq/day of NaHCO3.
Patient #4 was a person with 3-hydroxyisobutyric aciduria, lactic acidemia, and encephalomyopathy, who required 468 mEq/day of NaHCO3.
Blood and urine electrolytes, creatinine, pH, urinalysis, and venous blood gases were studied before and after treatment. Quantitative urine amino acids and organic acids were also obtained. Pre-enrollment doses of oral sodium bicarbonate were continued for the first 3 days of triacetyluridine treatment, then reduced weekly as tolerated to maintain serum bicarbonate above 20 mEq/1.
Patients received triacetyluridine 2 g/m^2 PO TID.

[4] = system: child with Leigh syndrome, lactic acidemia, and renal tubular acidosis; assay: Administration of triacetyluridine to a subject having Leigh syndrome (Example 5)
Text: patient two was a child with Leigh syndrome, lactic acidemia, and renal tubular acidosis who suffered a hypertensive crisis and acute edema as they came out of general anesthesia for replacement of an elective percutaneous gastrostomy tube (PEG). […] They developed pneumonia as a complication of PEG and developed new Leigh syndrome lesions in the spinal cord, midbrain, and thalamus. They drifted into a coma 3 days after PEG placement. The person received emergency treatment with triacetyluridine.

[5] = system: child with refractory epilepsy and multiple mitochondrial DNA deletion syndrome; assay: Administration of triacetyluridine to a subject having multiple mitochondrial DNA deletion syndrome (Example 4); details: patient
Text: patient one is a child with refractory epilepsy. As a 5th grader they were able to play little league baseball. […] This disorder produces multiple deleted copies of mitochondrial DNA and can lead to a number of symptoms. SK began deteriorating. They had 2 ICU admissions for crescendo epilepsy, and had 7 changes in their anticonvulsant regimen in the succeeding 4 months. They were having 8-10 grand-mal seizures every night, leaving them postictal for much of the morning. They also developed upper lip automaticity. The patient was initially administered 0.05 g/kg/day of triacetyluridine for one week, followed by 0.16 g/kg/day for 1 week, and then 0.24 g/kg/day.

[6] = system: adult with familial history of mitochondrial disease
Text: KL is an adult who first came to the investigator's attention after the diagnosis of their son with mitochondrial disease leading to stroke-like episodes, ataxia, and encephalopathy. Before administration of triacetyluridine, KL suffered with recurrent pyelonephritis, infection-association neutropenia, […] migraines, grand-mal seizures, neurogenic bowel and bladder requiring QID catheterization, biliary […], dysphagia and pc cough, peripheral and autonomic polyneuropathy, painful paresthesias, cardiac conduction disturbances with SVT and tachy-brady syndrome, severe orthostatic hypotension, orthopnea, and poor functional capacity with inability to climb a flight of stairs without stopping to rest, and declining cognitive performance with episodes of clouded sensorium and poor memory that would last hours to days. KL started triacetyluridine at a dose of 0.05 g/kg/d.

[7] = Patient #1, triacetyluridine 2 g/m^2 PO TID
[8] = patient three, started at 0.05 g/kg/d

`NC(=O)N1c2ccccc2C=Cc2ccccc21` [tegretol] showed a tegretol level [1] of 4 µg/mL.

With `CC(=O)OC[C@H]1O[C@@H](n2ccc(=O)[nH]c2=O)[C@H](OC(C)=O)[C@@H]1OC(C)=O` [triacetyluridine, 2′, 3′, 5′-tri-O-acetyl-1-β-D-uridine] the “overall condition and symptomotology (conclusion)” value ([2]; MARIAHS syndrome patient) was “dramatic improvement in the patient's condition, and a marked reduction in symptomotology”, the toxicity ([2]; human, in vivo) was “no biochemical, hematologic, or clinical toxicity” and the truncal ataxia ([2]; patient four, uridine, then triacetyluridine) was “Mild truncal ataxia persists”. The language and gait ([2]; patient four, within 2 months of a dose increase to 0.2 g/kg/day) was “rapid increase in expressive language acquisition and a narrowing of their previous broad-based, ataxic gait”, the “time to complete correction of RTA” value ([3]; Patient #1 (Leigh syndrome, complex I deficiency), triacetyluridine 2 g/m^2 PO TID) was ≤ 24 h and the “serum bicarbonate maintained without any further oral bicarbonate” value [3, 7] was “more than 20 mEq/l”. The “time to complete resolution of hydroxyprolinuria” value [3, 7] was ≤ 2 weeks, the urinary bicarbonate losses ([3]; Patient #2 (initially 99 mEq/l), after 36 hours on treatment, 2 g/m^2 PO TID) was < 5 mEq/l and the “share of pre-enrollment dose of bicarbonate needed to maintain normal serum bicarbonate” value ([3]; Patient #2, after 3 weeks of treatment, 2 g/m^2 PO TID) was 25%. For the same compound, the urinary bicarbonate losses ([3]; Patient #3 (59 mEq/l prior to therapy), after 36 hours of treatment, 2 g/m^2 PO TID) was < 5 mEq/l, the “share of previous dose of bicarbonate required” value ([3]; Patient #3, after 3 weeks of treatment, 2 g/m^2 PO TID) was 10% and the “reduction in oral bicarbonate requirement” value ([3]; Patient #4, following 1 week of treatment, 2 g/m^2 PO TID) was 35%. For the same compound, the “patients in whom renal tubular acidosis was corrected or dramatically improved” value ([3]; patients with mitochondrial disease, 2 g/m^2 PO TID) was 4 out of 4, the aminoaciduria ([4]; patient two) was “improved” and the “need for supplemental bicarbonate” value ([4]; patient two (before: 25 mEg/kg/day)) was “did not require any further supplemental bicarbonate”. For the same compound, the “time to complete resolution of renal tubular acidosis” value ([4]; patient two, emergency treatment with triacetyluridine) was ≤ 12 h, the clinical outcome ([4]; patient two, in coma before treatment) was “never awoke from their coma, and died after a 4 week terminal illness” and the “time until plasma amino acids returned to normal ranges” value ([4]; patient two, while receiving continuous parenteral nutrition) was ≤ 2 h. The nocturnal seizure activity ([5]; after increase to 0.24 g/kg/d with 0.5 g calcium pyruvate TID added, transient escalation, then after 3 days) was “decreased to zero”, the “seizures and involuntary lip movements” value ([5]; first three days, 0.05 g/kg/day) was “stopped completely” and the functional outcome ([5]; for several weeks) was “able to return to school and play little league baseball again”. For the same compound, the cystic breast disease ([6]; human, in vivo) was “flared slightly”, the menstrual cycle ([6]; human, in vivo) was “returned to normal” and the menstrual cycles ([6]; human, in vivo) was “shortened from every 4 weeks to every 2 weeks”. For the same compound, the “I&O catheterization required” value ([6]; patient three (before: QID catheterization), started at 0.05 g/kg/d) was 1-2 times a week, the functional capacity ([6]; patient three, after 6 weeks of triacetyluridine) was “able to walk a full mile” and the “pain of biliary dyssynergia” value [6, 8] was “gone”. The painful paresthesias [6, 8] was “gone, although some numbness persists”, the “seizures and migraine since starting treatment” value [6, 8] was “has not had a seizure or migraine” and the sensorium [6, 8] was “Her sensorium has cleared”. For the same compound, the tachy-brady syndrome [6, 8] was “persists”.

With `O=c1ccn([C@@H]2O[C@H](CO)[C@@H](O)[C@H]2O)c(=O)[nH]1` [uridine, reference compound] the “follow-up brain MRI, white matter disease” value ([2]; patient four, after 20 months on uridine) was “no progression in their white matter disease”.
